# Source: patent publication US20080287469A1, “Phosphoinositide 3-Kinase Inhibitors for Inhibiting Leukocyte Accumulation” (priority 2005, published 2008)
# Key:
# [1] = tested on: E-selectin; test: Flow cytometric analysis of E-selectin expression on TNFα-stimulated HUVECs; settings: TNFα 4 hr; IC87114 2 to 50 μM, LY294002 10 μM, Bay 11-7082 10 μM
# [2] = tested on: TNFα-stimulated HUVEC monolayers; test: Laminar flow assay: neutrophil capture by TNFα-stimulated HUVEC monolayers; assay type: cell-based, human; settings: wall shear rate 200 s^−1; IC87114 2 μM, LY294002 10 μM, Bay 11-7082 10 μM, CL3 50 μg/ml
# Experimental: Peripheral blood neutrophils were isolated from healthy volunteers and infused over the endothelial cell monolayer that was incorporated into a parallel plate flow chamber (GlycoTech) for 5 min at a shear rate of 200 s^−1. (Puri et al., Blood, 103:3448-3456 (2004)) Approval was obtained from the Washington University institutional review board for these studies. Informed consent was provided according to the Declaration of Helsinki. Neutrophil-endothelial cell interactions were recorded and analyzed as previously described. (Puri et al., Blood, 103:3448-3456 (2004)) For E-selectin blockade, HUVECs were incubated with mAb CL3 (50 μg/ml, 15 min) prior to adhesion assays.
# [3] = tested on: neutrophils on inflamed venular endothelium (E-selectin-dependent adhesion); test: Intravital microscopy of TNFα-stimulated cremaster muscle venules, P-selectin−/− mice; assay type: in vivo; settings: oral, one hour prior to TNFα-stimulation, vs vehicle
# Experimental: The surgical preparation of animals for all in vivo studies was performed using standard techniques. (Puri et al., Blood, 103:3448-3456 (2004)) An inflammatory response in the cremaster muscle (CM) venules of mice was induced by an intrascrotal injection of recombinant murine TNFα (20 ng/mouse). The tissue was surgically exposed 3 h post-cytokine stimulation and viewed on an intravital microscope (IV-500; Mikron instruments). GFP-expressing cells were visualized in the microcirculation through X^60 water immersion objective (Zeiss) using an intensified camera (VE1000SIT; Dage mti) and epifluorescence illumination. Rolling fraction was defined as the percentage of cells that interact with a given region of venule as compared to the total number of cells that enter that vessel (interacting and non-interacting) during the same time period. Venular shear rates were determined from optical Doppler velocimeter measurements of centerline erythrocyte velocity. Video images were recorded using a Hi8 VCR (Sony) and analysis of performed using a PC-based image analysis system.
# Although P-selectin expressed on endothelium predominates in the initial capture of circulating neutrophils in acute tissue injury, it is E-selectin that accounts for the phenotypically slow rolling movements of these cells in microvessels of TNFα-stimulated CM. […]
# [4] = biological target: T1, p110δ (Mus musculus, UniProt O35904); test: Immunoprecipitation and PI3K activity assay: p110δ from spleen extracts of WT mice; assay type: biochemical; settings: 10 μM; vs vehicle control
# T1 construct: this enzyme isolated from spleen extracts of WT animals; from tissue; host or cells: mouse spleen
# Experimental: Spleens from WT mice were pulverized in liquid nitrogen cooled mortar and solubilized in PI3-kinase lysis buffer (50 mM Tris-HCl (pH 7.4), 1% Triton X-100, 150 mM NaCl, 1 mM EDTA and a cocktail of inhibitors to serine and cysteine proteases (Complete™, Mini, Roch Applied Science, IN). HUVEC lysates were prepared as described. (Puri et al., Blood, 103:3448-3456 (2004)) Lysates were precleared with protein A-Sepharose and aliquots of the supernatants were incubated with antibodies specific for p110δ and p110γ, or control antibody for 1 hour at 4° C., followed by addition of protein A-Sepharose for 2 hours at 4° C. Precipitates were washed once with lysis buffer, twice with 0.1 M Tris-HCl, pH 7.4; 5 mM LiCl; and 0.1 mM sodium orthovanadate and once with PI 3-kinase buffer containing 20 mM Hepes, pH 7.4, 10 μM ATP, 5 mM MgCl2, plus 50 μg/ml horse IgG (Pierce, Rockford, Ill.). Lipid kinase activity was determined as previously described. (Sadhu et al., J. Immunol., 170:2647-2654 (2003)) The radioactive product PIP3 was captured onto a 96-well polyvinylidene difluoride filter plate (Millipore, Billerica, Mass.) and the bound radioactivity was quantitated with Microbeta Liquid Scintillation Counter (PerkinElmer Life Sciences, Boston, Mass.).
# [5] = Plasma concentration of the compound after oral administration; assay type: in vivo, mice; settings: 4 h post-oral administration; P-selectin−/− mice
# Experimental: Animals received a single oral dose of either a compound in accordance with the invention (25 mg/kg for mice and 20 or 40 mg/kg for rats) or vehicle (PEG-400). Blood samples were subsequently drawn at indicated time points and plasma concentration of the compound determined after liquid-liquid extraction by LC/MS. The lower quantification limit was 50 ng/ml. Plasma samples from control animals (vehicle alone) were used as the blank control.
# [6] = biological target: p110δ (Homo sapiens, UniProt O00329); settings: cited from earlier work
# p110δ (Homo sapiens, UniProt O00329), sequence (O00329 whole entry, species assumed): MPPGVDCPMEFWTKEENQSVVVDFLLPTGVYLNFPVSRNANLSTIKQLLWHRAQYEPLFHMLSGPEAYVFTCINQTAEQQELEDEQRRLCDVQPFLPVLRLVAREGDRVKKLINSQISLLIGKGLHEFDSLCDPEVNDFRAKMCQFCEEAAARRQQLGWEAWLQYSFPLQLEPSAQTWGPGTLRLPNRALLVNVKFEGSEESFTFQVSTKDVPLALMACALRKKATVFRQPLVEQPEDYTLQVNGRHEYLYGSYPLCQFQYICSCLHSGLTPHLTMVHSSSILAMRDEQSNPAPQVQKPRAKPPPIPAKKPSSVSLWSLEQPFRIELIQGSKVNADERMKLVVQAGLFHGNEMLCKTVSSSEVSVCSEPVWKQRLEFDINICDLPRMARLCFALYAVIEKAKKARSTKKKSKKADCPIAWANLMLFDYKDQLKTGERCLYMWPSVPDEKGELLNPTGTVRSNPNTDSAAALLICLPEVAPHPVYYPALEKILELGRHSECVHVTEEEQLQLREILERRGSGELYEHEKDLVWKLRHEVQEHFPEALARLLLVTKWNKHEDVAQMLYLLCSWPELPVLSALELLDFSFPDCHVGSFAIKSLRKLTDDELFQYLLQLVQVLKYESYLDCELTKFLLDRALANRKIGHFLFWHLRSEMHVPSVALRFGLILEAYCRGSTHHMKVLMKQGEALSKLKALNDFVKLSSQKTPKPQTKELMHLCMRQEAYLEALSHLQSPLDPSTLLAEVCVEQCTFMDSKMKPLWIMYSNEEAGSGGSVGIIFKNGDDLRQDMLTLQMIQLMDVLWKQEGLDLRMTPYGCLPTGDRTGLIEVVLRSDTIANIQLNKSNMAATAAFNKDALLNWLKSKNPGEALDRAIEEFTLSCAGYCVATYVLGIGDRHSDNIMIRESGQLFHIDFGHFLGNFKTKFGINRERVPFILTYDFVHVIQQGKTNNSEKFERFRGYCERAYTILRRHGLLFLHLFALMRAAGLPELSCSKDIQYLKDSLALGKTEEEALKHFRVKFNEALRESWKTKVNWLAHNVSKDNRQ
# p110δ (Homo sapiens, UniProt O00329), sequence (P27986 whole entry partner, species assumed): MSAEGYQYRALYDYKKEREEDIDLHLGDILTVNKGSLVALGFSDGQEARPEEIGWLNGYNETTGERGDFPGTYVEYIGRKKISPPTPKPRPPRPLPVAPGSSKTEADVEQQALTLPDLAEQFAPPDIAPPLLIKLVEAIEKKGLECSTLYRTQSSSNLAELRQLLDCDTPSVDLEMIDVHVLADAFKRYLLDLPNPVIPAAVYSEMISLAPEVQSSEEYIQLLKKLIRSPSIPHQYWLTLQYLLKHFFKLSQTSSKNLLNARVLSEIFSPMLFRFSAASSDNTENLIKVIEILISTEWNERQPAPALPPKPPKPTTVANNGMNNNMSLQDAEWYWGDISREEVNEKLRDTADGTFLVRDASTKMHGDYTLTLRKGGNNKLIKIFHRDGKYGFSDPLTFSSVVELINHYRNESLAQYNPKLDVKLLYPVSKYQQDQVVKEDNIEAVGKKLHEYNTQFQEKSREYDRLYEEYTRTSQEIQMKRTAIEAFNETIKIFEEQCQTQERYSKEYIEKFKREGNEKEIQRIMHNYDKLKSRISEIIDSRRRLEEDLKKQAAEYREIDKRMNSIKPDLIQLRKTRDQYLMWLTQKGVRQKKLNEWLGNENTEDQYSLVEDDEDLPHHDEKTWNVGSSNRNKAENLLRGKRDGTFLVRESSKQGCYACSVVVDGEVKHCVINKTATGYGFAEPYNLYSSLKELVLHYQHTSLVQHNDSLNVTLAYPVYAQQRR
# T1 sequence (O35904 whole entry): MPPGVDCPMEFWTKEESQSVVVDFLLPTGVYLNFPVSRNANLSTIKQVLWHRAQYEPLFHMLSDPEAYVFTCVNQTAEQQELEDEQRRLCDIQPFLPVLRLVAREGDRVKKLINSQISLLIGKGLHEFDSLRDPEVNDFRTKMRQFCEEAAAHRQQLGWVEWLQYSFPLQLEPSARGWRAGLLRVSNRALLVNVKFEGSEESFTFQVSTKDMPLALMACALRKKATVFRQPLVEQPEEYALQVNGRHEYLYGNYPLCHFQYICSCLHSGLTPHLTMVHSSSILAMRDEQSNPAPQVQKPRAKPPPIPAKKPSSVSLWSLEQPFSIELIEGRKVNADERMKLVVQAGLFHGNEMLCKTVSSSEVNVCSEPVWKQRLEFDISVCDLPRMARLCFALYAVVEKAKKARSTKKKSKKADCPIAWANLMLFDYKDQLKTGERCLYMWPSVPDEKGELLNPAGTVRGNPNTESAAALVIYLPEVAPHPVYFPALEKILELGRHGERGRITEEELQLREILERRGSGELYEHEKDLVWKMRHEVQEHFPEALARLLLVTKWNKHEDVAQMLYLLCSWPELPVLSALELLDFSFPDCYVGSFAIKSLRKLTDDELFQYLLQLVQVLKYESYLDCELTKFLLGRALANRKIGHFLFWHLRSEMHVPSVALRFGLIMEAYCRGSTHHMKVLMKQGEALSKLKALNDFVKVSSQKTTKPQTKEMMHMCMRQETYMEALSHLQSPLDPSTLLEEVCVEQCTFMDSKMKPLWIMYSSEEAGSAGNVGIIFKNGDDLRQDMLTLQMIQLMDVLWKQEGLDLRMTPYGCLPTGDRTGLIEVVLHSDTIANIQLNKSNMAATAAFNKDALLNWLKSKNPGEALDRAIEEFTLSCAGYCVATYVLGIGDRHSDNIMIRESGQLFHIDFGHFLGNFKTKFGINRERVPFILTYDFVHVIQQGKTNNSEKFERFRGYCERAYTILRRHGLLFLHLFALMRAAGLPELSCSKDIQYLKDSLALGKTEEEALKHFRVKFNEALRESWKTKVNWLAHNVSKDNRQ
# T1 sequence (P26450 whole entry partner): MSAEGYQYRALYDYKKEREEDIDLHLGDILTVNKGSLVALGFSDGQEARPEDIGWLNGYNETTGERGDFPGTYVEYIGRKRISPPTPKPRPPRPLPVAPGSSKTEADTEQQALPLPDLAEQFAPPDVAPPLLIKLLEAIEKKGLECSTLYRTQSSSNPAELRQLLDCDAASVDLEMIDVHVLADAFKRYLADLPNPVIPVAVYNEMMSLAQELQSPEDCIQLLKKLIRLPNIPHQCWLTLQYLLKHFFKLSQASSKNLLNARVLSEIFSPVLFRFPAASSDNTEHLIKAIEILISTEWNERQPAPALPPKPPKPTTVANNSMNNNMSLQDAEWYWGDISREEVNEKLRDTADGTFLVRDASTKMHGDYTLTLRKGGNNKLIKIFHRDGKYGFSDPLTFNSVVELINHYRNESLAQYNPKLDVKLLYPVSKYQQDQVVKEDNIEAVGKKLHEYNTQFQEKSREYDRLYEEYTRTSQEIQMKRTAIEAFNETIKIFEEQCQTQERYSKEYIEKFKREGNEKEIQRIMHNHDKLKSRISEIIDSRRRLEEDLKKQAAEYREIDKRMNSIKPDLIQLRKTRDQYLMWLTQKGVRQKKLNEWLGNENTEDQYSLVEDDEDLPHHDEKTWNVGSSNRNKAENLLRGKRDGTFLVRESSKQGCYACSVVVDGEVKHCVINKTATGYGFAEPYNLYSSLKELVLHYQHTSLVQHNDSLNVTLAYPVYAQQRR
Structure (SMILES),TNFα-induced expression of E-selectin [1],reduction of capture/attachment of untreated neutrophils [2],reduction in neutrophil attachment to and rolling on inflamed venular endothelium [3],reduction of PIP3 production by immuno-precipitated p110δ [4],mean plasma level of the compound [5],inhibition of delta activity ([6]; 10 μM),"inhibition of p110δ activity at the mean plasma level ([6]; 4.9±2.7 μM, Sadhu et al.)"
Cc1ccc(S(=O)(=O)/C=C/C#N)cc1 [Bay 11-7082],abrogated,100%,,,,,
Cc1ccccc1-n1c(Cn2cnc3c(N)ncnc32)nc2cccc(C)c2c1=O [IC87114],,,> 88%,> 90%,4.9 ± 2.7 µM,> 95%,> 85%
